Reference: patent publication US11292789B1 (priority 2020, dated 2022)

What was measured:
[1] = tested on: 12-day-old cortical cell cultures; assay: Nerve cell protection against excitotoxin damage, MTT assay; assay type: cell-based; conditions: for Cell viability from excitotoxin-induced neuron toxicity: cortical cell cultures pre-treated 1 hour, then glutamate, AMPA, NMDA, kinate, MTT after one day
Experimental: Nerve cell protection ability was evaluated using Quinazole and MDPX-V2021 prepared according to Example 1 and MK-801 prepared according to Comparative Example 3.
To evaluate the neuroprotective activity of Quinazole, MDPX-V2021 and MK-801 against damage due to excitotoxin, each of the samples was dissolved in ethanol (final concentration, 0.1%), and a 12-day-old cortical cell cultures were used. The cultures were respectively pre-treated with the samples for 1 hour and then exposed to 20 μM glutamate, 80 μM α-amino-3-hydroxy-5-methyl-4-isoxazolepropionic acid, 40 μM N-Methyl-D-aspartic acid and 200 μM kinate. Next, each of the cultures was additionally cultured in neurobasal medium for one day, and the survival rate of the nerve cells was measured by MTT assay.
MTT tetrazolium (1 mg/mL) was added to neurons grown in 96-well plate, and then cultured at 37° C. for 1 hour. The reaction medium was carefully sucked, and then DMSO was added thereto to dissolve the blue formazan product. The survival rate of the nerve cells was estimated by quantifying an available formazan at 540 nm using a multi-mode plate reader. The test was repeated 3 times, and the cell viability was calculated according to 100×(excitotoxin OD+sample treatment-excitotoxin treatment OD)/(control OD-excitotoxin treatment OD).

α-glucosidase = α-glucosidase (Saccharomyces cerevisiae, UniProt P53341); assay type: biochemical; conditions: concentrations 0.01 to 0.25 mg/ml, FIG. 7
Sequence of α-glucosidase (P53341 whole entry, looked up): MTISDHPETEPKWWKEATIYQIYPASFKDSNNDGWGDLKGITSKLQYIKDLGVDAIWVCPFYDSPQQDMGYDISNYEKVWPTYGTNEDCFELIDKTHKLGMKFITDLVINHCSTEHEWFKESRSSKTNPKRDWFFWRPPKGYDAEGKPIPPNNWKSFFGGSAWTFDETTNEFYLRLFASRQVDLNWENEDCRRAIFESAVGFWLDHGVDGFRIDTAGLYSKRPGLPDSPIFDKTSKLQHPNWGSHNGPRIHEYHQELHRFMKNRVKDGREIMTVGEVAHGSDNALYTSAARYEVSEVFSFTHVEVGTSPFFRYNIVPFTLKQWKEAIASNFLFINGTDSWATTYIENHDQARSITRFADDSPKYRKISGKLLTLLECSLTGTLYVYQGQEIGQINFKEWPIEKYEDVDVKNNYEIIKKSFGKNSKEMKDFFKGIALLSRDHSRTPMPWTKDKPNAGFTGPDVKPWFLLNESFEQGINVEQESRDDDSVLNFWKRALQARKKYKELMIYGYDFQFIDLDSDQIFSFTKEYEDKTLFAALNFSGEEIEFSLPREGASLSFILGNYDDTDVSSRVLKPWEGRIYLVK
Experimental: Next, 20 μl of P-NPG (5 mM) was added as a substrate and further incubated at 37° C. for 20 minutes. This reaction was stopped by adding 50 μl of Na2CO3 (0.1 M). […] Each experiment was performed three times. An inhibition rate (%) was evaluated using the following equation (inhibition (%)=[1−(sample/control)]×100).

`COc1ccc(-n2cnc3ccc(OC)cc3c2=O)c(CO)c1` [Quinazol A, Dictyoquinazol A, reference compound] was tested, and the “Cell viability from excitotoxin-induced neuron toxicity” value [1] was 68.910 ± 1.406%.
`COc1ccc(-n2cnc3ccc(OC)cc3c2=O)c(COC(C)(C)C)c1` [MDPX-V2021, 3-{2-[(tert-butoxy)methyl]-4-methoxyphenyl}-6-methoxy-3,4-dihydroquinazolin-4-one] was tested, and the “inhibitory activity against α-glucosidase (in words)” value (α-glucosidase) was “has inhibitory activity against α-glucosidase”, the “Cell viability from excitotoxin-induced neuron toxicity” value [1] was 84.083 ± 3.482% and the “cell viability compared with Quinazole (in words)” value ([1]; sample concentration range of 0.1 to 50 μM, FIG. 8) was “significantly higher”.
In the case of `CC12NC(Cc3ccccc31)c1ccccc12` (centres unmarked) [MK-801, reference compound], the “Cell viability from excitotoxin-induced neuron toxicity” value [1] is reported as 78.830 ± 0.567%.
